Values quoted from earlier work, collected in patent US20250340540A1, “Crystal Forms Of HS378 And Preparation Method Therefor” (priority 2022, published 2025).

Tested on: novel coronavirus
Settings: mouse, in vivo; cited from earlier work

CC(C)(C)[C@H](NC(=O)C(F)(F)F)C(=O)N1C[C@H]2[C@@H]([C@H]1C(=O)N[C@H](C#N)C[C@@H]1CCNC1=O)C2(C)C [HS378, (1R, 2S, 5S)-N-{(1S)-1-cyano-2-[(3S)-2-oxopyrrolidin-3-yl]-ethyl}-6,6-dimethyl-3-[3-methyl-N-(trifluoroacetyl)-L-valyl]-3-azabicyclo [3.1.0]hexane-2-carboxamide]
Oral activity: Oral activity was demonstrated
